Data: US11339185B2, “Cyclic dinucleotides as anticancer agents” (Bristol-Myers Squibb Company, priority 2018, dated 2022)
Read-outs that look alike come from different tables or passages of the source.

Assays:
[1] = test system: THP1-Dual cells, IRF pathway (IRF3); assay: STING THP1 Reporter Assay, IRF pathway (secreted Lucia luciferase, QUANTI-Luc); type: cell-based; settings: 10% human plasma, luciferase readout, 100% activation = 100 μM cGAMP, read-out: THP1 Reporter Assays EC50 (μM) IRF3
From the text: (§1) THP1-Dual™ cells were derived from the human THP-1 monocyte cell line by stable integration of two inducible reporter constructs. To this end, THP1-Dual™ cells allow the simultaneous study of the NF-κB pathway, by monitoring the activity of SEAP, and the IRF pathway by assessing the activity of a secreted luciferase (Lucia). Both reporter proteins are readily measurable in the cell culture supernatant when using QUANTI-Blue™, a SEAP detection reagent, and QUANTI-Luc™, a luciferase detection reagent.
(§2) THP1-Dual™ cells induce the activation of NF-κB in response to STING agonists. They also trigger the IRF pathway upon stimulation with STING agonists, such as cGAMP. Here, the THP-1-Dual cells were used to assess STING binders for function on the cellular level.
(§3) Serial dilutions of compounds in DMSO were added to low volume 384 well plates at 100 nl/well using an ECHO acoustic dispenser (Labcyte, model 550) to achieve final starting concentration of 100 μM in cell suspension. THP-1 Dual™ STING reporter cells (Invivogen, Dual cells cat #THPD-nfis) were added to the plates with compounds at 15,000 cells in 10 μL per well in RPMI media (Gibco, cat #11875) containing 10% human plasma in a low volume 384-well black wall clear bottom tissue culture plate (Corning, cat #3542) for SEAP assay and low volume solid white plate (Corning, cat #3826) for luciferase assay. One column of the plate was reserved for treatment with cGAMP at 100 μM for 100% activation calculation and one column for no treatment (DMSO only) for baseline activation. Plates were then incubated in 37 OC incubator at 5% CO2 for 20 hours.
(§4) In the SEAP assay, 5 μl of 2× QuantiBlue (Invivogen, cat #Rep-qb2) is added to 384 well black plates seeded with THP1 cells and incubated at 37° C. for 2 hours. Plates were read on the Envision (Perkin Elmer) at 620 nm wavelength (OD620). In the luciferase assay, 5 μl of Quantiluc (Invivogen, Rep-qlc2) is added to white 384 well plates seeded with THP1 cells and read at 5 minutes on the Envision (Perkin Elmer) using a luminescence protocol (RLU). For both cell lines, 100% activation was determined by value (RLU) of THP-1 Dual STING cells stimulated with 100 μM cGAMP (Invivogen, cat #TLRL-NACGA23-5).

[2] = test system: THP1-Dual cells, NF-κB pathway; assay: STING THP1 Reporter Assay, NF-κB pathway (SEAP, QUANTI-Blue); type: cell-based; settings: 10% human plasma, SEAP readout (OD620), 100% activation = 100 μM cGAMP, read-out: THP1 Reporter Assays EC50 (μM) NFkB
From the text: as §1, §2, §3, §4

[3] = target: T1, STING AQ: His-TVMV-S-hSTING(155-341)-G230A-R293Q (Homo sapiens, UniProt Q86WV6, G230A/H232R/R293Q); assay: STING HTRF binding assay (time resolved FRET competition), STING AQ; settings: 20 nM His-tagged STING AQ cytoplasmic domain, 40 nM fluorescein-labeled cGAMP analog probe, one hour; read-out: HTRF Binding Assays IC50 (μM) AQ
T1 construct: STING AQ: His-TVMV-S-hSTING(155-341)-G230A-R293Q
T1 sequence (Q86WV6 with tags, fused parts or gaps G230A/H232R/R293Q): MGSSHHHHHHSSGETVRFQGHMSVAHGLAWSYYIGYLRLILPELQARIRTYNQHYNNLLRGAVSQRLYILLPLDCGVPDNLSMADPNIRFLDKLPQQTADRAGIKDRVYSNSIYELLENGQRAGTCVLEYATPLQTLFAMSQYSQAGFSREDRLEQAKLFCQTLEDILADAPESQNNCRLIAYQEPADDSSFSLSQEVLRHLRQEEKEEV
Protocol: (§5) A time resolved FRET-based competition binding assay was used to assess test article binding to STING WT and STING AQ. His-tagged STING cytoplasmic domain (WT or AQ) at a concentration of 20 nM was incubated with 2.5 nM Tb-labeled anti-His antibody, test compound, and fluorescein-labeled cGAMP analog probe (BioLog cat. no. C195) at a concentration of 200 nM (STING WT) or 40 nM (STING AQ) in PBS containing 0.005% Tween-20 and 0.1% BSA for one hour. Fluorescence at 495 nm and 520 nm was measured using an EnVision microplate reader to quantify FRET between Tb-labeled anti-His antibody and fluorescein-labeled probe. Background was defined as the signal obtained in the absence of STING protein, and background subtracted FRET ratios were normalized to the maximum signal obtained in the absence of test compound. These values were converted to a percent inhibition. Percent inhibition was determined for test compounds at 11 concentrations. The IC50, defined as the concentration of competing test compound needed to reduce specific binding of the probe by 50%, was calculated using the 4 parameter logistic equation to fit the data

[4] = target: T2, STING WT: His-TVMV-S-hSTING(155-341)-H232R (Homo sapiens, UniProt Q86WV6, H232R); assay: STING HTRF binding assay (time resolved FRET competition), STING WT; settings: 20 nM His-tagged STING WT cytoplasmic domain, 200 nM fluorescein-labeled cGAMP analog probe, one hour; read-out: HTRF Binding Assays IC50 (μM) WT
T2 construct: STING WT: His-TVMV-S-hSTING(155-341)-H232R
T2 sequence (Q86WV6 with tags, fused parts or gaps H232R): as the sequence (Q86WV6 with tags, fused parts or gaps G230A/H232R/R293Q) above, with A99G, Q162R counted along it
Protocol: as §5

| Structure (SMILES) | EC50 ([1]; 20 hours) [µM] | EC50 ([2]; 20 hours) [µM] | IC50 [3] [µM] | IC50 [4] [µM] | EC50 ([1]; Homo sapiens, THP1-Dual, 20 h) [µM] | EC50 ([2]; Homo sapiens, THP1-Dual, 20 h) [µM] |
| --- | --- | --- | --- | --- | --- | --- |
| Nc1ncnc2c1ncn2[C@@H]1C[C@@H]2COP(=O)(S)O[C@H]3[C@@H](O)[C@H](n4cnc5c(=O)n6cc[nH]c6nc54)O[C@@H]3COP(=O)(S)OC[C@H]21 (single isomer, unassigned) [Example 5-3] | > 100 | > 100 | 5.73 | > 100 | – | – |
| Nc1ncnc2c1ncn2[C@@H]1C[C@@H]2COP(=O)(S)O[C@H]3[C@@H](O)[C@H](n4cnc5c(=O)n6cc[nH]c6nc54)O[C@@H]3COP(=O)(S)OC[C@H]21 (single isomer, unassigned) [Example 5-4] | > 100 | > 100 | 0.11 | 34.5 | – | – |
| Nc1ncnc2c1ncn2[C@@H]1C[C@@H]2COP(=O)(S)O[C@@H]3[C@H](F)[C@@H](COP(=O)(S)OC[C@H]21)O[C@H]3n1cnc2c(=O)n3cc[nH]c3nc21 (single isomer, unassigned) [Example 6-1] | > 100 | > 100 | 0.18 | 6.31 | – | – |
| Nc1ncnc2c1ncn2[C@@H]1C[C@@H]2COP(=O)(S)O[C@@H]3[C@H](F)[C@@H](COP(=O)(S)OC[C@H]21)O[C@H]3n1cnc2c(=O)n3cc[nH]c3nc21 (single isomer, unassigned) [Example 6-2] | 3.18 | 6.99 | 0.01 | 0.13 | – | – |
| Nc1ncnc2c1ncn2[C@@H]1C[C@@H]2COP(=O)(S)O[C@@H]3[C@H](F)[C@@H](COP(=O)(S)OC[C@H]21)O[C@H]3n1cnc2c(=O)n3cc[nH]c3nc21 (single isomer, unassigned) [Example 6-3] | > 100 | > 100 | 0.22 | 9.24 | – | – |
| Nc1ncnc2c1ncn2[C@@H]1C[C@@H]2COP(=O)(S)O[C@@H]3[C@H](F)[C@@H](COP(=O)(S)OC[C@H]21)O[C@H]3n1cnc2c(=O)n3cc[nH]c3nc21 (single isomer, unassigned) [Example 6-4] | > 100 | > 100 | 0.63 | 19.4 | – | – |
| Nc1ncnc2c1ncn2[C@@H]1C[C@@H]2COP(=O)(S)O[C@@H]3[C@H](F)[C@@H](COP(=O)(S)OC[C@H]21)O[C@H]3n1cnc2c1ncn1ccnc21 (single isomer, unassigned) [Example 8-1] | > 100 | > 100 | 3.41 | 11.1 | – | – |
| Nc1ncnc2c1ncn2[C@@H]1C[C@@H]2COP(=O)(S)O[C@@H]3[C@H](F)[C@@H](COP(=O)(S)OC[C@H]21)O[C@H]3n1cnc2c1ncn1ccnc21 (single isomer, unassigned) [Example 8-2] | > 100 | > 100 | 0.51 | 3.43 | – | – |
| Nc1ncnc2c1ncn2[C@@H]1C[C@@H]2COP(=O)(S)O[C@@H]3[C@H](F)[C@@H](COP(=O)(S)OC[C@H]21)O[C@H]3n1cnc2c1ncn1ccnc21 (single isomer, unassigned) [Example 8-3] | > 100 | > 100 | 0.3 | 0.89 | – | – |
| Nc1ncnc2c1ncn2[C@@H]1C[C@@H]2COP(=O)(S)O[C@@H]3[C@H](F)[C@@H](COP(=O)(S)OC[C@H]21)O[C@H]3n1cnc2c1ncn1ccnc21 (single isomer, unassigned) [Example 8-4] | 26.1 | 32.4 | 0.08 | 0.35 | – | – |
| NC(=O)c1cc([C@@H]2C[C@@H]3COP(=O)(S)O[C@H]4[C@@H](F)[C@H](n5cnc6c(N)ncnc65)O[C@@H]4COP(=O)(S)OC[C@H]32)ccn1 (single isomer, unassigned) [Example 9] | 18.4 | 23.5 | 0.02 | 1.41 | – | – |
| NC(=O)c1cc([C@@H]2C[C@@H]3COP(=O)(S)O[C@H]4[C@@H](F)[C@H](n5cnc6c(N)ncnc65)O[C@@H]4COP(=O)(S)OC[C@H]32)ccn1 (single isomer, unassigned) [Example 10] | > 100 | > 100 | 2.3 | 40.9 | – | – |
| NC(=O)c1cc([C@@H]2C[C@@H]3COP(=O)(S)O[C@H]4[C@H](F)[C@H](n5cnc6c(N)ncnc65)O[C@@H]4COP(=O)(S)OC[C@H]32)ccn1 (single isomer, unassigned) [Example 11] | – | – | 10.1 | 52.5 | > 100 | > 100 |
| NC(=O)c1cc([C@@H]2C[C@@H]3COP(=O)(S)O[C@H]4[C@@H](F)[C@H](n5cnc6c(N)ncnc65)O[C@@H]4COP(=O)(O)OC[C@H]32)ccn1 (single isomer, unassigned) [Example 13] | – | – | 0.1 | 4.78 | 54.6 | 90 |
| NC(=O)c1cc([C@@H]2C[C@@H]3COP(O)(=S)O[C@H]4[C@@H](F)[C@H](n5cnc6c(N)ncnc65)O[C@@H]4COP(=O)(O)OCC32)ccn1 (single isomer, unassigned) [Example 14] | – | – | 7.78 | > 100 | > 100 | > 100 |
| NC(=O)c1cc([C@@H]2C[C@@H]3COP(=O)(S)OC[C@@H]4[C@@H](COP(=O)(S)OC[C@H]32)C[C@H]4n2cnc3c(N)ncnc32)ccn1 (single isomer, unassigned) [Example 15-1] | – | – | > 100 | > 100 | > 100 | > 100 |
| Nc1ncnc2c1ncn2[C@@H]1C[C@@H]2COP(=O)(S)O[C@H]3[C@@H](F)[C@H](n4cnc5c4ncn4ccnc54)O[C@@H]3COP(=O)(S)OC[C@H]21 (single isomer, unassigned) [Example 17-1] | – | – | 3.55 | > 100 | > 100 | > 100 |
| Nc1ncnc2c1ncn2[C@@H]1C[C@@H]2COP(=O)(S)O[C@H]3[C@@H](F)[C@H](n4cnc5c4ncn4ccnc54)O[C@@H]3COP(=O)(S)OC[C@H]21 (single isomer, unassigned) [Example 17-2] | > 100 | > 100 | 0.46 | 39 | – | – |
| Nc1ncnc2c1ncn2[C@@H]1C[C@@H]2COP(=O)(S)O[C@H]3[C@@H](F)[C@H](n4cnc5c4ncn4ccnc54)O[C@@H]3COP(=O)(S)OC[C@H]21 (single isomer, unassigned) [Example 17-3] | 73.7 | 89.6 | 0.11 | 5.22 | – | – |
| O=P1(S)OC[C@@H]2[C@@H](COP(=O)(S)O[C@H]3[C@@H](F)[C@H](n4cnc5c4ncn4ccnc54)O[C@@H]3CO1)C[C@H]2n1cnc2c(Cl)ncnc21 (single isomer, unassigned) [Example 18-1] | – | – | 26.4 | > 100 | > 100 | > 100 |
